# Assays:
# [1] = system: existing P. aeruginosa PAO1 biofilm; experiment: Biofilm reduction in MBEC plate (crystal violet); assay type: cell-based, Pseudomonas aeruginosa; details: at 10, 5, 2.5, and 1 μM; 2 μg/mL PMBN; 48 hour biofilm
# Description: P. aeruginosa PAO1 (5×10^5 cfu/mL) was grown in an MBEC plate for 24 hours. At 24 hours, the pegs were moved to a new 96-well plate containing fresh MHII media and either scrambled, RpsJ, or AcpP PPMO at the indicated concentrations. All wells containing PPMOs (including Scrambled) contained 2 μg/mL of PMBN. The pegs were again moved to new plates with or without PPMOs at 32 and 40 hours. Pegs were processed for crystal violet or visualized with microscopy at 48 hours. […] FIGS. 7B-7D: Spinning Disk confocal microscopy images of 48 hour biofilm treated with (FIG. 7B) 10 μM Scr PPMO #42, (FIG. 7C) 2.5 μM AcpP PPMO #35, (FIG. 7D) 10 μM AcpP PPMO #35. Green channel is PAO1 GFP; Red channel is biofilm stained with 200 μg/mL of Concanavalin A, Alexafluor 647 conjugate.
# Pseudomonas aeruginosa Biofilm Reduction in MBEC Plate Protocol
# • 1. 10 mL of MH is inoculated with a single colony and incubated at 37° C. and ˜250 rpm for about 5 hours. • 2. The sample is centrifuged for 10 minutes at ˜4000 rpm at 4° C., the supernatant decanted and the pellet resuspended in 10 mL of 150 mM NaCl or PBS. This step is repeated to wash the pellet 3 times. • 3. […] The OD600 of the sample is taken and cfu/mL is calculated. […]
# 1. […] The final OD570 of the 10× dilution of solution should be approximately 0.500 absorbance. […]
# 2. OD reading: The OD570 for the 96-well plate from step 1e is determined. […]
# [2] = system: P. aeruginosa PAO1; experiment: Synergy assay with Piperacillin Tazobactam; assay type: cell-based, Pseudomonas aeruginosa; details: PPMO 32 to 0.5 μM; 2 μg/mL PMBN; 18 hours at 37° C.
# Description: (§1) A synergy assay was performed with Piperacillin Tazobactam and AcpP PPMO #35 in P. aeruginosa PAO1. 1×10^6 cfu/mL of PAO1 was inoculated into Mueller Hinton II media in an 96-well plate in the presence of 2 μs/mL PMBN. Piperacillin Tazobactam (PT) was serial diluted by half dilutions in the lateral direction from 128 to 0.124 μg/mL. AcpP PPMO #35 was vertically diluted in the same manner from 32 to 0.5 μM. The 96-well plate was then incubated for 18 hours at 37° C.
# as §1, with “μg/mL” for “μs/mL”
substance,measurement,setting,value
"PPMO #35: AcpP PMO CTCATACCTTG, 5′ (RXR)4XB CPP, 3′ H",reduction of existing biofilm (crystal violet),[1],statistically significant reduction of biofilm
same,MIC of Piperacillin Tazobactam in combination with PPMO,[2],decreasing MIC values as the PPMO concentration increased

# Reference: US11293024B2, “Antisense antibacterial compounds and methods” (priority 2014, dated 2022)
